“Also recorded” adds a separate entry of the source.
Legend:
NGF [1] = molecular target: T1, NGF (Homo sapiens, UniProt P01138); details: cited from earlier work
OA = details: tanezumab 2.5-5 mg combined, N = 2000; cited from earlier work
NGF [2] = molecular target: T1, NGF; details: cell culture models; cited from earlier work
[3] = tested on: subjects with chronic low back pain (CLBP); assay: Study 1063, Phase 3 in Japan: efficacy (LBPI, RMDQ) in chronic low back pain; format: in vivo, human
Procedure: Patients received a total of seven SC injections, separated by 8 weeks (tanezumab or
Treatment groups were as follows: 1. […] Placebo for tanezumab SC and celecoxib BID.
The Intent-to-Treat (ITT) analysis set included all patients who were randomized and received at least one dose of SC study medication (either tanezumab or placebo). This analysis set was primary for all efficacy endpoints, which were analyzed according to randomization assignment, and was labeled as the ‘ITT population’.

[4] = tested on: adult patients with chronic low back pain; assay: Study 1059: adverse events and adjudicated joint safety; format: in vivo, human; details: for incidence of discontinuations from treatment due to an adverse event / incidence of serious adverse events / overall incidence of adverse events: 56-week treatment period
Excerpt: For subjects who are identified with a possible or probable joint event (i.e., rapidly progressive osteoarthritis, subchondral insufficiency fractures, spontaneous osteonecrosis of the knee (SPONK), primary osteonecrosis or pathological fracture) and subjects undergoing total joint replacement for any reason, all images and other source documentation may be provided to the blinded Adjudication Committee for review and adjudication of the event. The Adjudication Committee's assessment of the event may represent the final classification of the event.
(§1) Patients were also required to have documented history of previous inadequate treatment response to at least 3 different categories of agents commonly used and generally considered effective for the treatment of chronic low back pain. Patients were required to discontinue all medications for the treatment of chronic low back pain during the primary efficacy assessment period (up to Week 16).

[5] = tested on: adult patients with chronic low back pain; assay: Study 1059, Phase 3: efficacy (LBPI, RMDQ) in chronic low back pain; format: in vivo, human
Procedure: The Low Back Pain Intensity (LBPI) measure is assessed with an 11-point numeric rating scale ranging from 0 (no pain) to 10 (worst possible pain). The LBPI score can be the daily average LBPI score.
The Roland Morris Disability Questionnaire (RMDQ) is an index of how well subjects with low back pain are able to function with regard to daily activities (Roland M, Fairbank. The Roland-Morris Questionnaire and the Oswestry Disability Questionnaire. Spine. 2000; 25 (4)3115-3124). It is a low back pain-specific assessment of physical function with scores ranging from 0 to 24 (lower scores indicate better function).
as §1
Approximately 1800 patients were planned to be randomized initially in a 2:2:2:3 ratio to 1 of 4 following treatment groups:
1. Placebo administered SC at an 8-week interval plus placebo matching tramadol PR up to Week 16. At the Week 16 visit, patients in this group were switched in a blinded fashion in a 1:1 ratio to either tanezumab 5 mg or tanezumab 10 mg administered SC at an 8 week interval plus placebo matching tramadol PR to Week 56;
2. Tanezumab 5 mg SC administered at an 8-week interval plus placebo matching tramadol PR to Week 56;
3. Tanezumab 10 mg SC administered at an 8-week interval plus placebo matching tramadol PR to Week 56;
4. Oral tramadol PR 100-300 mg daily plus placebo administered SC at an 8-week interval to Week 56.
To achieve the initial randomization and intended re-randomization at Week 16 for placebo patients, a randomization ratio 1:1:2:2:3 for placebo→tanezumab 5 mg (at Week 16), placebo→tanezumab 10 mg (at Week 16), tanezumab 5 mg, tanezumab 10 mg, and tramadol PR was used at the beginning of the trial.
Table 2 summarizes the requirements for analgesic medication usage prior to Screening and the requirements for LBPI and Patient's Global Assessment (PGA) of CLBP. The current study enrolled patients who were more refractory to standard of care treatments for CLBP and had higher LBPI scores at Baseline.

[6] = tested on: subjects with chronic low back pain (CLBP); details: in vivo
Procedure: This second study (termed “Study 1063) was a randomized, double-blind, active-controlled, multicenter, parallel-group Phase 3 study in Japan to evaluate the safety and efficacy of tanezumab when administered by SC injection for up to 56 weeks in subjects with chronic low back pain (CLBP). […] Patients were also required to be experiencing some benefit from their current stable dose regimen of oral therapy of NSAID (celecoxib 200 mg/day [100 mg BID], loxoprofen 120 to 180 mg/day or meloxicam 5 to 15 mg/day) treatment, but still required additional pain relief at screening. […] Patients with a diagnosis of osteoarthritis of the knee or hip as defined by the American College of Rheumatology combined clinical and radiographic criteria or who had Kellgren Lawrence Grade ≥2 radiographic evidence of hip osteoarthritis or Kellgren Lawrence Grade ≤3 radiographic evidence of knee osteoarthritis were excluded.
Treatment groups were as follows: 1. Tanezumab 5 mg SC and placebo for celecoxib BID; 2. Tanezumab 10 mg SC and placebo for celecoxib BID; 3. Placebo for tanezumab SC and celecoxib BID.
This study was designed with a total (post-randomization) duration of 80 weeks and consisted of three periods: (1) a Screening period (up to a maximum of 37 days), (2) a Double-blind Treatment period (56 weeks), and (3) a Safety Follow-up (24 weeks) Period (FIG. 8). The Screening Period included a Washout Period (lasting 2-32 days) if required, and an Initial Pain Assessment Period (IPAP) (5 days prior to Randomization/Baseline; minimum 4 days).
The Safety analysis set included all patients who received at least one dose of SC study treatment. This analysis set was primary for all safety endpoints, which were analyzed according to treatment received, and was labeled as the ‘Safety population’. In this study, the ITT and Safety analysis sets were identical.

[7] = tanezumab 5-10 mg combined, N = 1008
[8] = 5 mg SC every 8 weeks, listed as Tan
[9] = 10 mg SC every 8 weeks, listed as Tan

T1 sequence (P01138 122-241): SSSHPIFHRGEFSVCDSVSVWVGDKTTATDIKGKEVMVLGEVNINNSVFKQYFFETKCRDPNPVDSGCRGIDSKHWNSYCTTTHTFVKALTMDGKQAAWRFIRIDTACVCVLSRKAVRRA

For “tanezumab: humanized IgG2 monoclonal antibody directed against human nerve growth factor (NGF); heavy chain SEQ ID NO: 9 or 11, light chain SEQ ID NO: 10”, the “binding to NGF” value (NGF [1]) is given as “high specificity and affinity; also recorded: high affinity and specificity”, the “Primary Osteonecrosis” value (OA) is given as “(0.1%)” and the RPOA (OA) is given as “(4.8%)”. For the same substance, the “RPOA Type 1” value (OA) was “(3.9%)”, the “RPOA Type 2” value (OA) was “(0.9%)” and the “Subchondral Insufficiency Fracture” value (OA) was “(0.7%)”. The “blocking of the activity of NGF” value (NGF [2]) was “blocks the activity of NGF effectively”, the “Proportion of Patients with ≥50% Improvement in LBPI at Week 16 (Mixed BOCF/LOCF)” value ([3]; 5 mg SC every 8 weeks) was “(51.1%)” and the “Proportion with ≥50% Improvement in LBPI at Week 16, Difference vs. celecoxib” value ([3]; 5 mg SC every 8 weeks) was 18.5. For the same substance, the “Change from Baseline to Week 16 in LBPI (Multiple Imputation), LS Mean” value ([3]; 5 mg SC every 8 weeks, ITT) was −2.91, the “Change from Baseline to Week 16 in RMDQ (Multiple Imputation), LS Mean” value ([3]; 5 mg SC every 8 weeks, ITT) was −3.85 and the “Change from Baseline to Week 16 in RMDQ, LS Mean Difference vs. celecoxib” value ([3]; 5 mg SC every 8 weeks, ITT) was −0.01. The “treatment differences for change from baseline to Week 56 for LBPI and RMDQ” value ([3]; 5 mg group relative to both the tanezumab 10 mg and the celecoxib groups) was “numerically larger”, the “Proportion of Patients with ≥50% Improvement in LBPI at Week 16 (Mixed BOCF/LOCF)” value ([3]; 10 mg SC every 8 weeks) was “(35.5%)” and the “Proportion with ≥50% Improvement in LBPI at Week 16, Difference vs. celecoxib” value ([3]; 10 mg SC every 8 weeks) was 2.9. The “Change from Baseline to Week 16 in LBPI (Multiple Imputation), LS Mean” value ([3]; 10 mg SC every 8 weeks, ITT) was −2.51, the “Change from Baseline to Week 16 in RMDQ (Multiple Imputation), LS Mean” value ([3]; 10 mg SC every 8 weeks, ITT) was −4.38 and the “incidence of adverse events of potential sympathetic dysfunction” value ([4]; 5 mg) was 5.9%. The “incidence of carpal tunnel syndrome” value ([4]; 5 mg) was 1.0%, the incidence of hypoaesthesia ([4]; 5 mg) was 3.0% and the “incidence of composite joint safety endpoint” value ([4]; 5 mg SC every 8 weeks) was 1.0%. For the same substance, the “observation-time adjusted rate of composite joint safety endpoint” value ([4]; 5 mg SC every 8 weeks) was 10.0 events/1000 patient-years, the “patients adjudicated to normal progression of OA, number” value ([4]; 5 mg SC every 8 weeks) was 1 patient and the “patients with joint safety event adjudicated to RPOA Type 1” value ([4]; 5 mg SC every 8 weeks) was 1.0%. The “patients with joint safety event adjudicated to RPOA Type 1, number” value ([4]; 5 mg SC every 8 weeks) was 5 patients, the “incidence of discontinuations from treatment due to an adverse event” value ([4]; 5 mg) was 6.7% and the “incidence of serious adverse events” value ([4]; 5 mg) was 2.2%. For the same substance, the “overall incidence of adverse events” value ([4]; 5 mg) was 58.3%, the “incidence of adverse events of potential sympathetic dysfunction” value ([4]; 10 mg) was 6.4% and the “incidence of carpal tunnel syndrome” value ([4]; 10 mg) was 1.6%. The incidence of hypoaesthesia ([4]; 10 mg) was 3.8%, the “incidence of composite joint safety endpoint” value ([4]; 10 mg SC every 8 weeks) was 2.6% and the “observation-time adjusted rate of composite joint safety endpoint” value ([4]; 10 mg SC every 8 weeks) was 25.7 events/1000 patient-years. The “patients adjudicated to normal progression of OA, number” value ([4]; 10 mg SC every 8 weeks) was 1 patient, the “patients with joint safety event adjudicated to RPOA Type 1” value ([4]; 10 mg SC every 8 weeks) was 1.4% and the “patients with joint safety event adjudicated to RPOA Type 1, number” value ([4]; 10 mg SC every 8 weeks) was 7 patients. For the same substance, the “patients with joint safety events adjudicated to RPOA Type 2” value ([4]; 10 mg SC every 8 weeks) was 0.4%, the “patients with joint safety events adjudicated to RPOA Type 2, number” value ([4]; 10 mg SC every 8 weeks) was “Two” and the “patients with subchondral insufficiency fracture” value ([4]; 10 mg SC every 8 weeks) was 0.8%. The “patients with subchondral insufficiency fracture, number” value ([4]; 10 mg SC every 8 weeks) was “Four and four”, the “patients with total joint replacement during study observation period, number” value ([4]; 10 mg SC every 8 weeks) was 7 patients and the “incidence of discontinuations from treatment due to an adverse event” value ([4]; 10 mg) was 7.4%. For the same substance, the “incidence of serious adverse events” value ([4]; 10 mg) was 4.6%, the “overall incidence of adverse events” value ([4]; 10 mg) was 63.7% and the “Primary Osteonecrosis, n (%)” value [4, 7] was 0 n (%). The “RPOA Type 1” value [4, 7] was “(1.2%)”, the “RPOA Type 2” value [4, 7] was “(0.2%)” and the “Subchondral Insufficiency Fracture” value [4, 7] was “(0.4%)”. The “patients with joint safety event requiring adjudication” value ([4]; tanezumab-treated patients (5 and 10 mg combined), 80-week observation period) was 2.6%, the “LBPI at week 56, LS mean difference versus tramadol” value ([5]; 5 mg SC every 8 weeks) was −0.11 and the “LBPI change from Baseline to Week 2, Difference vs. plc” value ([5]; 5 mg SC every 8 weeks) was −0.37. The “LBPI change from Baseline to Week 2, LS Mean” value ([5]; 5 mg SC every 8 weeks) was −1.54, the “LBPI change from Baseline to Week 16, Difference vs. plc” value ([5]; 5 mg SC every 8 weeks) was “No statistically significant improvement” and the “LBPI change from Baseline to Week 16, LS Mean” value ([5]; 5 mg SC every 8 weeks) was −2.98. For the same substance, the “Proportion of patients with ≥50% improvement in LBPI at Week 16” value ([5]; 5 mg SC every 8 weeks) was “(43.3) %”, the “RMDQ at week 56, LS mean difference versus tramadol” value ([5]; 5 mg SC every 8 weeks) was −0.44 and the “RMDQ change from Baseline to Week 16, Difference vs. plc” value (from here on “RMDQ change … Difference vs. plc”) ([5]; 5 mg SC every 8 weeks) was “larger improvement in RMDQ versus placebo treatment”. For the same substance, the “RMDQ change from Baseline to Week 16, LS Mean” value ([5]; 5 mg SC every 8 weeks) was −6.27, the “percentage of patients achieving ≥30% improvement in LBPI at week 16” value ([5]; 5 mg SC every 8 weeks) was 64.8% and the “≥30% improvement in LBPI at week 16, odds ratio versus placebo” value ([5]; 5 mg SC every 8 weeks) was 1.45. For the same substance, the “≥30% improvement in LBPI at week 16, odds ratio versus tramadol” value ([5]; 5 mg SC every 8 weeks) was 1.34, the “≥50% improvement in LBPI at Week 16, OR vs. plc” value (“≥50% improvement … OR vs. plc” below) ([5]; 5 mg SC every 8 weeks) was 1.28 and the “LBPI change from Baseline to Week 16, Difference vs. plc” value [5, 8] was −0.30. The “RMDQ change … Difference vs. plc” value [5, 8] was −1.32, the “LBPI at week 56, LS mean difference versus tramadol” value ([5]; 10 mg SC every 8 weeks) was −0.21 and the “LBPI change from Baseline to Week 2, Difference vs. plc” value ([5]; 10 mg SC every 8 weeks) was “onset of effect at Week 2”. The “LBPI change from Baseline to Week 2, LS Mean” value ([5]; 10 mg SC every 8 weeks) was −1.59, the “LBPI change from Baseline to Week 16, Difference vs. plc” value ([5]; 10 mg SC every 8 weeks) was “statistically significant improvement” and the “LBPI change from Baseline to Week 16, LS Mean” value ([5]; 10 mg SC every 8 weeks) was −3.08. For the same substance, the “Proportion of patients with ≥50% improvement in LBPI at Week 16” value ([5]; 10 mg SC every 8 weeks) was “(46.3) %”, the “RMDQ at week 56, LS mean difference versus tramadol” value ([5]; 10 mg SC every 8 weeks) was −0.83 and the “RMDQ change … Difference vs. plc” value ([5]; 10 mg SC every 8 weeks) was “superior improvement in physical function”. For the same substance, the “RMDQ change from Baseline to Week 16, LS Mean” value ([5]; 10 mg SC every 8 weeks) was −6.69, the “percentage of patients achieving ≥30% improvement in LBPI at week 16” value ([5]; 10 mg SC every 8 weeks) was 65.5% and the “≥30% improvement in LBPI at week 16, odds ratio versus placebo” value ([5]; 10 mg SC every 8 weeks) was 1.50. For the same substance, the “≥30% improvement in LBPI at week 16, odds ratio versus tramadol” value ([5]; 10 mg SC every 8 weeks) was 1.38, the “≥50% improvement … OR vs. plc” value ([5]; 10 mg SC every 8 weeks) was “superior responder rate” and the “LBPI change from Baseline to Week 2, Difference vs. plc” value [5, 9] was −0.42. The “LBPI change from Baseline to Week 16, Difference vs. plc” value [5, 9] was −0.40, the “RMDQ change … Difference vs. plc” value [5, 9] was −1.74 and the “≥50% improvement … OR vs. plc” value [5, 9] was 1.45. For the same substance, the “severity of abnormal peripheral sensation adverse events” value [6] was “mild in severity” and the “severity of potential sympathetic dysfunction events” value [6] was “mild in severity”.

Reference: patent US20220135663A1, “Method of treatment of Chronic Low Back Pain” (Pfizer Inc., priority 2019, published 2022)
